Columns and labels:
Details in all cases: 72 h
[1] = tested on: HepG2; test: relative viability EC50 (midpoint between 100% and the lowest measured viability); higher = less toxic
[2] = tested on: U2OS; test: as above
[3] = tested on: Calu-3; test: as above
[4] = tested on: Vero E6; test: as above
[5] = tested on: HepG2; test: drug sensitivity score (DSS) for viability; higher = more toxic; extreme values may be limits of the assay
[6] = tested on: U2OS; test: as above
[7] = tested on: Calu-3; test: as above
[8] = tested on: Vero E6; test: as above
[9] = tested on: Caco-2; test: as above
[10] = tested on: HepG2; test: cell viability relative to DMSO; higher = less toxic
[11] = tested on: U2OS; test: as above
[12] = tested on: Calu-3; test: as above
[13] = tested on: Vero E6; test: as above
[14] = tested on: Caco-2; test: as above
[15] = tested on: Caco-2; test: relative viability EC50 (midpoint between 100% and the lowest measured viability); higher = less toxic

| Compound | relative viability EC50 [1] | relative viability EC50 [2] | relative viability EC50 [3] | relative viability EC50 [4] | drug sensitivity score [5] | drug sensitivity score [6] | drug sensitivity score [7] | drug sensitivity score [8] | drug sensitivity score [9] | cell viability ([10]; 1 nM) | cell viability ([10]; 10 nM) | cell viability ([10]; 100 nM) | cell viability ([10]; 1000 nM) | cell viability ([10]; 10000 nM) | cell viability ([11]; 1 nM) | cell viability ([11]; 10 nM) | cell viability ([11]; 100 nM) | cell viability ([11]; 1000 nM) | cell viability ([11]; 10000 nM) | cell viability ([12]; 1 nM) | cell viability ([12]; 10 nM) | cell viability ([12]; 100 nM) | cell viability ([12]; 1000 nM) | cell viability ([12]; 10000 nM) | cell viability ([13]; 1 nM) | cell viability ([13]; 10 nM) | cell viability ([13]; 100 nM) | cell viability ([13]; 1000 nM) | cell viability ([13]; 10000 nM) | cell viability ([14]; 1 nM) | cell viability ([14]; 10 nM) | cell viability ([14]; 100 nM) | cell viability ([14]; 1000 nM) | cell viability ([14]; 10000 nM) | relative viability EC50 [15] |
| --- | --- | --- | --- | --- | --- | --- | --- | --- | --- | --- | --- | --- | --- | --- | --- | --- | --- | --- | --- | --- | --- | --- | --- | --- | --- | --- | --- | --- | --- | --- | --- | --- | --- | --- | --- |
| CC(C)(O)C(=O)N1CCN(c2ccc(C(F)(F)F)c(C3=C(c4c[nH]c5ccccc45)C(=O)NC3=O)c2)CC1 | 3.57 µM | 3.35 µM | 4.17 µM | 3.46 µM | 4.6 | 3.3 | 2.1 | 3.6 | 2.2 | 101% | 96.5% | 103% | 107% | 7.5% | 99.6% | 95.8% | 103% | 102% | 35.6% | 102% | 93.2% | 106% | 117% | 46.2% | 102% | 97.7% | 96.9% | 104% | 29.5% | 92.7% | 95.5% | 95.7% | 105% | 51.1% | – |
| CCCCn1ccc(N2CCC(c3ccccc3)CC2)c(Cl)c1=O | > 10 µM | > 10 µM | > 10 µM | > 10 µM | 0.4 | 0 | 0 | 0 | 1 | 99.2% | 101% | 86.7% | 108% | 78.9% | 100% | 98.7% | 100% | 98.8% | 99% | 107% | 96.7% | 87% | 99.3% | 89.8% | 106% | 106% | 104% | 106% | 97.2% | 102% | 103% | 87.7% | 111% | 68.4% | – |
| CCc1ccc(/C=C2/SC(=S)NC2=O)cc1 | > 10 µM | > 10 µM | > 10 µM | – | 0 | 0 | 0 | – | 0 | 98.2% | 106% | 93.7% | 95.9% | 95.6% | 97.9% | 95.9% | 99.8% | 94.9% | 96.7% | 101% | 87% | 97.9% | 93.4% | 103% | – | – | – | – | – | 102% | 85.3% | 101% | 108% | 93.3% | > 10 µM |
| CN(C)C1CCN(C(=O)c2ccc(NC(=O)Nc3ccc(-c4nc(N5CCOCC5)nc(N5CCOCC5)n4)cc3)cc2)CC1 | > 10 µM | > 10 µM | 0.635 µM | > 10 µM | 0.3 | 1.5 | 8.3 | 0 | 3.3 | 98.5% | 108% | 95.8% | 100% | 84.3% | 97.7% | 97.8% | 100% | 92.1% | 79.7% | 105% | 90.5% | 87.2% | 65.6% | 35.5% | 94.2% | 100% | 89.3% | 90.7% | 107% | 93.8% | 93.7% | 102% | 87.1% | 66.7% | – |
| COc1ccc(S(=O)(=O)N2CCCN(S(=O)(=O)c3ccc(OC)c(OC)c3)CC2)cc1OC | > 10 µM | > 10 µM | > 10 µM | – | 0 | 0 | 0 | – | 0 | 99.3% | 100% | 79.4% | 98.7% | 110% | 98.6% | 96.1% | 99.3% | 100% | 97% | 89.1% | 84.7% | 102% | 94.4% | 92.1% | – | – | – | – | – | 89.4% | 90.5% | 94.5% | 102% | 108% | > 10 µM |
| CC#C[C@@H](CC(=O)O)c1ccc(OCc2cccc(-c3ccc(C(F)(F)F)cc3)c2)cc1 [AMG-837] | – | > 10 µM | > 10 µM | > 10 µM | – | 0 | 0 | 0 | 0 | – | – | – | – | – | 101% | 94.7% | 99.9% | 95% | 93.9% | 104% | 104% | 110% | 92.7% | 94.9% | 97.5% | 100% | 95.8% | 102% | 97.4% | 102% | 95.3% | 97.7% | 94.9% | 93.2% | > 10 µM |
| O=C(Nc1c[nH]nc1-c1nc2ccc(CN3CCOCC3)cc2[nH]1)NC1CC1 [AT-9283] | 0.93 µM | 1.66 µM | 0.461 µM | – | 10.8 | 8.8 | 8 | 3.1 | 2 | 96.6% | 97.7% | 82.4% | 57.3% | 5.8% | 98.2% | 97.7% | 80.6% | 74.7% | 1.1% | 107% | 96.9% | 85.9% | 65.4% | 43.6% | 99.9% | 93.1% | 90.4% | 86.7% | 66.7% | 87.1% | 102% | 90.9% | 90.7% | 71.8% | – |
